Source: patent US8343475B2, “Small cationic antimicrobial peptides” (priority 2006, dated 2013)
Converted amounts (≈) assume the structure as drawn. Residues, ends and D or L forms follow the SMILES beside them.

How the values were obtained:
[1] = test system: Pseudomonas aeruginosa PAO1 strain H103; format: cell-based
Outline: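 Modified broth microdilution MIC in Mueller Hinton medium, peptides diluted in 0.01% acetic acid/0.2% BSA, polypropylene plates. Inoculum 2-7×10^5 CFU/ml, overnight at 37 °C; MIC is the lowest concentration with no visible growth.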

[2] = test system: CXCL1 (Gro-α) release by human PBMC; test: Chemokine induction in PBMC (capture ELISA); format: cell-based; conditions: background (196) subtracted
Outline: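 Human PBMC from healthy donors' heparinised blood (Ficoll), 7.5×10^5 cells treated with 20 or 100 μg/ml peptide for 24 h at 37° C, 5% CO2. Cell-free supernatants assayed for CXCL1 by capture ELISA.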

[3] = test system: ESBL E. coli clinical strain 64771; format: cell-based; conditions: ESBL clinical strain 64771
Outline: (§1)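 Broth microdilution in Mueller Hinton medium, peptides serially diluted in 0.01% acetic acid with 0.2% BSA in polypropylene plates. Inoculum 2-7×10^5 CFU/ml, incubated overnight at 37° C. MIC is the lowest concentration with no visible growth.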

[4] = test system: multidrug resistant Pseudomonas maltophilia ATCC13637; format: cell-based
Outline: as §1

[5] = test system: ESBL Klebsiella pneumonia clinical strain 63575; format: cell-based
Outline: as §1

[6] = test system: MCP-3 release by human PBMC; test: Chemokine induction in PBMC (capture ELISA); format: cell-based; conditions: background (6) subtracted
Outline: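 Human PBMC from healthy donors (Ficoll-isolated), 7.5×10^5 cells at 0.75–1×10^6 cells/ml, treated with peptides at 20 or 100 μg/ml for 24 h at 37° C, 5% CO2. MCP-3 in cell-free supernatants measured by capture ELISA.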

[7] = test system: ESBL E. cloacae; format: cell-based, Enterobacter cloacae
Outline: (§2)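 Modified broth microdilution in Mueller Hinton medium, peptides serially diluted in 0.01% acetic acid with 0.2% BSA in polypropylene plates. Inoculum 2-7×10^5 CFU/ml, overnight incubation at 37° C; MIC taken as lowest concentration with no visible growth.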

[8] = test system: Liverpool Epidemic Strains; format: cell-based, Pseudomonas aeruginosa
Outline: as §2

[9] = test system: multidrug resistant Brazilian clinical isolates of P. aeruginosa; format: cell-based, Pseudomonas aeruginosa
Outline: as §2

[10] = test system: Staphylococcus aureus ATCC25923; format: cell-based; conditions: ATCC25923
Outline: (§3)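 No-growth endpoint after overnight culture at 37° C in Mueller Hinton broth. Inoculum: 2-7×10^5 CFU/ml. Peptide diluent: 0.01% acetic acid, 0.2% BSA.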

[11] = test system: Enterococcus faecalis ATCC29212; format: cell-based; conditions: ATCC29212
Outline: as §3

[12] = test system: MCP-1 release by human PBMC; test: Chemokine induction in PBMC (capture ELISA); format: cell-based; conditions: background (204) subtracted
Outline: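 Heparinized blood from healthy volunteers; Ficoll-isolated human PBMC (7.5×10^5) treated with peptides at 20 or 100 μg/ml for 24 hours at 37° C, 5% CO2. Cell-free supernatants assayed for MCP-1 by capture ELISA.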

[13] = test system: clinical isolates of MRSA; format: cell-based, Staphylococcus aureus
Outline: as §2

SMILES | antimicrobial activity against P. aeruginosa PAO1 (in words) ([1]; laboratory strain P. aeruginosa PAO1) | Chemokine induction Gro-α ([2]; 20 μg/ml peptide) [pg/mL] | Chemokine induction Gro-α ([2]; 100 μg/ml peptide) [pg/mL] | MIC [3] [µM] | MIC [4] [µM] | MIC [5] [µM] | Chemokine induction MCP-3 ([6]; 20 μg/ml peptide) [pg/mL] | Chemokine induction MCP-3 ([6]; 100 μg/ml peptide) [pg/mL] | MIC [7] [µM] | MIC [8] [µM] | MIC [9] [µM] | MIC [10] [µM] | MIC [11] [µM] | Chemokine induction MCP-1 ([12]; 20 μg/ml peptide) [pg/mL] | Chemokine induction MCP-1 ([12]; 100 μg/ml peptide) [pg/mL] | MIC [13] [µM] | MIC against P. aeruginosa PAO1 ([1]; PAO1) [µM]
CC[C@H](C)[C@H](NC(=O)[C@H](CCCCN)NC(=O)[C@H](CC(C)C)NC(=O)[C@@H](NC(=O)[C@@H](N)C(C)C)C(C)C)C(=O)N[C@H](C(=O)N[C@@H](CCCNC(=N)N)C(=O)N[C@@H](CCCNC(=N)N)C(=O)N[C@@H](Cc1ccccc1)C(N)=O)C(C)C [HHC148, VVLKIVRRF] (H-VVLKIVRRF-NH2; N-terminus assumed) | did not return any generally active substances | 55 | 60 | 241 (≈ 272 µg/mL) | 60 (≈ 67.7 µg/mL) | >241 | 1 | 3 | 241 (≈ 272 µg/mL) | 241 (≈ 272 µg/mL) | >241 | 241 (≈ 272 µg/mL) | 241 (≈ 272 µg/mL) | 25 | 210 | 241 (≈ 272 µg/mL) | 
CC[C@H](C)[C@H](NC(=O)[C@H](Cc1c[nH]c2ccccc12)NC(=O)[C@H](Cc1c[nH]c2ccccc12)NC(=O)[C@H](CCCCN)NC(=O)[C@H](CC(C)C)NC(=O)[C@H](CCCNC(=N)N)NC(=O)[C@H](CCCCN)NC(=O)[C@@H](N)CCCNC(=N)N)C(=O)N[C@@H](Cc1ccc(O)cc1)C(N)=O [HHC66, RKRLKWWIY] (H-RKRLKWWIY-NH2; N-terminus assumed) |  | -12 | -23 | 6 (≈ 8.09 µg/mL) | 3 (≈ 4.04 µg/mL) | 50 (≈ 67.4 µg/mL) | 0 | 0 | 13 (≈ 17.5 µg/mL) | 6 (≈ 8.09 µg/mL) | 50 (≈ 67.4 µg/mL) | 6 (≈ 8.09 µg/mL) | 50 (≈ 67.4 µg/mL) | 351 | 355 | 6 (≈ 8.09 µg/mL) | 4 to 12
